In patent US20250241863A1, “COMPOSITIONS AND METHODS FOR TARGETED DELIVERY OF THERAPEUTIC AND/OR DIAGNOSTIC SPECIES” (THE PENN STATE RESEARCH FOUNDATION, priority 2017, published 2025):
Blank lines part the entries; values can stand above or below the compound they belong to. {FAM} = fluorescein (FAM) label; {NH2} = amine modification

Tests used:
[1] = activation temperature of the retro Diels-Alder reaction of the linker groups (FIG. 7); type: physicochemical; details: linker group in FIG. 7
Text: (§1) For different Diels-Alder cyclo-addition products, the retro (or reverse) Diels-Alder reaction will occur or be initiated at different temperatures (i.e., different activation temperatures). Thus, by varying the Diels-Alder cyclo-addition product in the linker group, breaking up or cleaving of the Diels-Alder cyclo-addition product (and concomitant decoupling of the therapeutic species and the nanoparticle) can be “tuned” to occur at different temperatures.

[2] = temperature dependency of retro Diels-Alder reaction (release of fluorescent si-RNA) for linker connected to a nanoparticle (FIGS. 10, 11); type: physicochemical; details: for cleavage of the linker: linker connected to a nanoparticle
Text: as §1
Specifically, to conjugate a FAM-tagged RFP antisense siRNA mimic, an EDC coupling protocol was used with […] of an aqueous EDC/NHS (100 mM) stock solution added to each of the three resuspended nanoparticle aliquots prepared in Example 3, followed by […] of the amine-terminated siRNA (4 mM), After 24 h, the particles were again centrifuged, washed, and resuspended in DI water. A control sample in which cysteamine modified SNPs were linked to the 6-maleimidohexanoic acid via EDC coupling was also prepared, similarly to the pyrrole-based reaction described above, but without addition of the diene, to test the stability of both the amide and thiol linkages. Conjugation of the linkers and siRNA was tested by chemically reducing the Ag-linker bond using TCEP reagent (tris(2-carboxyethyl)phosphine hydrochloride) and measuring FAM intensity of the supernatant.
The products of these reactions (pyrrole, furan, and thiophene-based) were analyzed. For example, the temperature dependency of the retro Diels Alder reaction (and release of the fluorescent si-RNA) was evaluated. […] The fluorescence intensity of the treated sample is assumed to indicate maximum release (due to cleavage/retro (or reverse) Diels Alder reaction).

PAM2 skin cancer cells = experiment: anti-cancer effects of released miRN-148b in PAM2 cells (FIG. 23); type: cell-based; details: PAM2 cells transfected, 7 days after transfection (positive control)
Method: (§2) The anti-cancer effects towards PAM2 skin cancer cells of miRN-148b released from compositions described herein were explored using a furan-based linker conjugated with a FAM-tagged miRN-148b and an SNP. The furan-based linker composition was prepared according to Examples 1-5. SNPs surface-modified with miRNA mimics via Diels-Alder linkage, were sterilized in 70/30% ethanol and water solution prior to washing and resuspension in RNAse-free water. Subsequently, appropriate nanoparticle solution volumes were added, based on required dosages, to the adherent monolayer PAM2 cells at optimal seeding densities, immersed in appropriate cell culture media. Transfection was allowed to occur at 37° C. for 24 h.
FIG. 23A is a negative control showing fluorescence of the PAM2 cells in the presence of silver nanoparticles prepared in accordance with Example 1 after 7 days. FIG. 23B is a positive control showing PAM2 cells transfected with FAM-tagged miRN-148b 7 days after transfection.

[3] = tested on: Ras-induced keratinocyte lung cancer cells; experiment: anti-cancer effects of released miRN-148b in Ras-induced keratinocyte cells (FIG. 24); type: cell-based; details: keratinocyte cells transfected with 100 nM, after 7 days
Method: as §2, with “Ras-induced keratinocyte lung” for “PAM2 skin”
FIG. 24A is a negative control of keratinocyte cells in the absence of the composition and FAM-tagged miRN-148b after 7 days. FIG. 24B is a positive control of keratinocyte cells after 7 days, which have been transfected with FAM-tagged miRN-148b (100 nM).

Compound: O=C(O)CCCCCN1C(=O)C2C3C=CC(C(=O)O)(N3)C2C1=O (centres unmarked) [pyrrole-based linker group]
activation temperature of the retro Diels-Alder reaction [1]: 40 °C

activation temperature of the retro Diels-Alder reaction [1]: around 80 °C
cleavage of the linker ([2]; after 2 hours of heating at 37° C., 60° C., and 80° C.): not observed until 80 °C
Compound: O=C(O)CCCCCN1C(=O)C2C3C=CC(CS)(S3)C2C1=O (centres unmarked) [thiophene-based linker group]

Compound: FAM-tagged miRN-148b: 3′amine/5′-FAM modified single stranded siRNA, sequence UUGGAGCCGUACUGGAACUUG (5' {FAM}, 3' {NH2}, sugars by position and backbone not given here)
cell proliferation and growth (PAM2 skin cancer cells): reduced cell proliferation and growth
cell growth [3]: normal cell behavior

activation temperature of the retro Diels-Alder reaction [1]: 60 °C
speed of cleavage of the linker compared with the thiophene-based linker ([2]; FIGS. 10 and 11): faster at lower temperatures
cleavage of the linker ([2]; after 1 hour of heating, at 60° C.): 25%
Compound: O=C(O)CCCCCN1C(=O)C2C3C=CC(CS)(O3)C2C1=O (centres unmarked) [furan-based linker group]
